From ChEMBL document CHEMBL1157938, “Cytotoxicity and inhibition of DNA topoisomerase I of polyhydroxylated triterpenoids and triterpenoid glycosides” (Bioorg Med Chem Lett, 2010)
The source made the active and inactive calls. The calls are words filed in the database; no cut-off is given here.

Columns and labels:
HL-60 [1] = assay: Cytotoxicity against human HL60 cells after 48 hrs by WST8 assay; type: functional; conditions: HL-60, 48 h
PANC-1 [2] = assay: Cytotoxicity against human PANC1 cells after 48 hrs by WST8 assay; type: functional; conditions: PANC-1, 48 h
[3] = Cytotoxicity against human MRC5 cells after 48 hrs by WST8 assay; type: cell-based
A549 [4] = assay: Cytotoxicity against human A549 cells after 48 hrs by WST8 assay; type: functional; conditions: A549, 48 h
DNA topoisomerase 1 [5] = target: T1, DNA topoisomerase 1 (Homo sapiens, UniProt P11387); assay: Inhibition of human DNA topoisomerase 1-mediated relaxation of supercoiled DNA by gel electrophoresis
T1 sequence (P11387 whole entry): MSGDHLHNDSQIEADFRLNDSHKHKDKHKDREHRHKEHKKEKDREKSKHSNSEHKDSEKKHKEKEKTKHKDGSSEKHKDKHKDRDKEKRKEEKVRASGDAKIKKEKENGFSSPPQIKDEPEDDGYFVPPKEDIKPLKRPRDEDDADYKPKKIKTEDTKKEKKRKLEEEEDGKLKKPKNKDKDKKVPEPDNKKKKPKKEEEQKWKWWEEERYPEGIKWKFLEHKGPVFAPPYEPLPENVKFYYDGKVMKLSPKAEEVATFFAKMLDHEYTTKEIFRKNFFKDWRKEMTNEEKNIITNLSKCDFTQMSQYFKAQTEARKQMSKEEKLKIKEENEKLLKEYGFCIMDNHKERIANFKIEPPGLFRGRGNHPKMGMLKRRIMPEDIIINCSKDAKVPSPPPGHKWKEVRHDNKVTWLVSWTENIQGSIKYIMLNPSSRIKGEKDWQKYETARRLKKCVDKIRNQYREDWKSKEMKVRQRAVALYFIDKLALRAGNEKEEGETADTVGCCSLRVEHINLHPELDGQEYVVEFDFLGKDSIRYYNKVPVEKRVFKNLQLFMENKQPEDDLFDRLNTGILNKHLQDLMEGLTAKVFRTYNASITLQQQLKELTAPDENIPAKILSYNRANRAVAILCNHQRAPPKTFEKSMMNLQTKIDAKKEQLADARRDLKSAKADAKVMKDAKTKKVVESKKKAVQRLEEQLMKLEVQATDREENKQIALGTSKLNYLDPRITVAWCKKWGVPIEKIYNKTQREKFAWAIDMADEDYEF

[6] = target: T2, DNA topoisomerase 1 (Homo sapiens) (UniProt P11387); assay: Inhibition of human DNA topoisomerase 1-mediated relaxation of supercoiled DNA at 63 uM
T2 sequence (whole entry): T1 sequence (P11387 whole entry)

[7] = target: T2, DNA topoisomerase 1 (Homo sapiens); assay: Inhibition of human DNA topoisomerase 1 assessed as stabilize DNA-enzyme covalent complex
[8] = target: T2, DNA topoisomerase 1 (Homo sapiens); assay: Inhibition of human DNA topoisomerase 1 assessed as prevention of DNA-enzyme complex formation
[9] = target: T2, DNA topoisomerase 1 (Homo sapiens); assay: Inhibition of human DNA topoisomerase 1-mediated relaxation of supercoiled DNA at 63 to 125 uM
[10] = target: DNA topoisomerase 2-alpha (Homo sapiens, UniProt P11388); assay: Inhibition of human DNA topoisomerase 2-mediated relaxation of supercoiled DNA by gel electrophoresis
PC-3 [11] = assay: Cytotoxicity against human PC3 cells after 48 hrs by WST8 assay; type: functional; conditions: PC-3, 48 h
DNA topoisomerase 1 [12] = target: T1, DNA topoisomerase 1; assay: Inhibition of human DNA topoisomerase 1 at free enzyme state
[13] = target: T2, DNA topoisomerase 1 (Homo sapiens); assay: Inhibition of human DNA topoisomerase 1 assessed as intercalate into DNA at 312 uM
[14] = target: T2, DNA topoisomerase 1 (Homo sapiens); assay: Inhibition of human DNA topoisomerase 1-mediated relaxation of supercoiled DNA at 312 uM
[15] = target: T2, DNA topoisomerase 1 (Homo sapiens); assay: Inhibition of human DNA topoisomerase 1-mediated relaxation of supercoiled DNA at 450 uM
HL-60 [16] = assay: Cytotoxicity against human HL60 cells at 25 uM after 48 hrs by WST8 assay; type: functional, cell-based
PANC-1 [17] = assay: Cytotoxicity against human PANC1 cells at 25 uM after 48 hrs by WST8 assay; type: functional, cell-based
[18] = target: T2, DNA topoisomerase 1 (Homo sapiens); assay: Inhibition of human DNA topoisomerase 1-mediated relaxation of supercoiled DNA at >125 uM
A549 [19] = assay: Cytotoxicity against human A549 cells at 25 uM after 48 hrs by WST8 assay; type: functional, cell-based
PC-3 [20] = assay: Cytotoxicity against human PC3 cells at 25 uM after 48 hrs by WST8 assay; type: functional, cell-based
MRC5 = assay: Cytotoxicity against human MRC5 cells at 25 uM after 48 hrs by WST8 assay; type: cell-based; conditions: mrc5, 48 h
[21] = Inhibition of Leishmania donovani DNA topoisomerase 1 preincubated before addition of DNA
DNA topoisomerase 1 [22] = target: T3, DNA topoisomerase 1 (Rattus norvegicus, UniProt Q9WUL0); assay: Inhibition of rat liver DNA topoisomerase 1 treated simultaneously with DNA
T3 sequence (Q9WUL0 whole entry): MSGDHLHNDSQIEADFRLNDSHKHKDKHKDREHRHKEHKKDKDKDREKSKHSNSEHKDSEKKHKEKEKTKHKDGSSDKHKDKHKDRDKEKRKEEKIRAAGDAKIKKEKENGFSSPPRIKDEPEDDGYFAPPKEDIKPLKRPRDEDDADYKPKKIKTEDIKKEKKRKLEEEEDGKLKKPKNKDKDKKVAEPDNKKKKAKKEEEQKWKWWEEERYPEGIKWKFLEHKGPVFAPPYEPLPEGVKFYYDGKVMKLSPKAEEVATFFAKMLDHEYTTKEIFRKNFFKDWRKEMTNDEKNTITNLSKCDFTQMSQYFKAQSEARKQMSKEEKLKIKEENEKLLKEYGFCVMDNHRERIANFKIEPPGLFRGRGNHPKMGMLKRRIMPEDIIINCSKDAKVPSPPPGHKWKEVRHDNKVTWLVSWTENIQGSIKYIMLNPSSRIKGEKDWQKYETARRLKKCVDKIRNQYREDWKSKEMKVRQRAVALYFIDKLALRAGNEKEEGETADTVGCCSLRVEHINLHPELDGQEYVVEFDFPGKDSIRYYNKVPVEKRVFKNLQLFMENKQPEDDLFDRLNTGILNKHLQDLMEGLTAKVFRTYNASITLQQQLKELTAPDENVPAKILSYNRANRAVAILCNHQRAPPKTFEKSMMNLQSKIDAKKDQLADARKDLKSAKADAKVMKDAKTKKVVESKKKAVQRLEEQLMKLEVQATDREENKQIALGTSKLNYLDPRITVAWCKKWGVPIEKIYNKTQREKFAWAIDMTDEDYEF

[23] = Inhibition of Leishmania donovani DNA topoisomerase 1 treated simultaneously with DNA
DNA topoisomerase 1 [24] = target: T3, DNA topoisomerase 1; assay: Inhibition of rat liver DNA topoisomerase 1 preincubated before addition of DNA

Sequence of DNA topoisomerase 2-alpha (P11388 whole entry): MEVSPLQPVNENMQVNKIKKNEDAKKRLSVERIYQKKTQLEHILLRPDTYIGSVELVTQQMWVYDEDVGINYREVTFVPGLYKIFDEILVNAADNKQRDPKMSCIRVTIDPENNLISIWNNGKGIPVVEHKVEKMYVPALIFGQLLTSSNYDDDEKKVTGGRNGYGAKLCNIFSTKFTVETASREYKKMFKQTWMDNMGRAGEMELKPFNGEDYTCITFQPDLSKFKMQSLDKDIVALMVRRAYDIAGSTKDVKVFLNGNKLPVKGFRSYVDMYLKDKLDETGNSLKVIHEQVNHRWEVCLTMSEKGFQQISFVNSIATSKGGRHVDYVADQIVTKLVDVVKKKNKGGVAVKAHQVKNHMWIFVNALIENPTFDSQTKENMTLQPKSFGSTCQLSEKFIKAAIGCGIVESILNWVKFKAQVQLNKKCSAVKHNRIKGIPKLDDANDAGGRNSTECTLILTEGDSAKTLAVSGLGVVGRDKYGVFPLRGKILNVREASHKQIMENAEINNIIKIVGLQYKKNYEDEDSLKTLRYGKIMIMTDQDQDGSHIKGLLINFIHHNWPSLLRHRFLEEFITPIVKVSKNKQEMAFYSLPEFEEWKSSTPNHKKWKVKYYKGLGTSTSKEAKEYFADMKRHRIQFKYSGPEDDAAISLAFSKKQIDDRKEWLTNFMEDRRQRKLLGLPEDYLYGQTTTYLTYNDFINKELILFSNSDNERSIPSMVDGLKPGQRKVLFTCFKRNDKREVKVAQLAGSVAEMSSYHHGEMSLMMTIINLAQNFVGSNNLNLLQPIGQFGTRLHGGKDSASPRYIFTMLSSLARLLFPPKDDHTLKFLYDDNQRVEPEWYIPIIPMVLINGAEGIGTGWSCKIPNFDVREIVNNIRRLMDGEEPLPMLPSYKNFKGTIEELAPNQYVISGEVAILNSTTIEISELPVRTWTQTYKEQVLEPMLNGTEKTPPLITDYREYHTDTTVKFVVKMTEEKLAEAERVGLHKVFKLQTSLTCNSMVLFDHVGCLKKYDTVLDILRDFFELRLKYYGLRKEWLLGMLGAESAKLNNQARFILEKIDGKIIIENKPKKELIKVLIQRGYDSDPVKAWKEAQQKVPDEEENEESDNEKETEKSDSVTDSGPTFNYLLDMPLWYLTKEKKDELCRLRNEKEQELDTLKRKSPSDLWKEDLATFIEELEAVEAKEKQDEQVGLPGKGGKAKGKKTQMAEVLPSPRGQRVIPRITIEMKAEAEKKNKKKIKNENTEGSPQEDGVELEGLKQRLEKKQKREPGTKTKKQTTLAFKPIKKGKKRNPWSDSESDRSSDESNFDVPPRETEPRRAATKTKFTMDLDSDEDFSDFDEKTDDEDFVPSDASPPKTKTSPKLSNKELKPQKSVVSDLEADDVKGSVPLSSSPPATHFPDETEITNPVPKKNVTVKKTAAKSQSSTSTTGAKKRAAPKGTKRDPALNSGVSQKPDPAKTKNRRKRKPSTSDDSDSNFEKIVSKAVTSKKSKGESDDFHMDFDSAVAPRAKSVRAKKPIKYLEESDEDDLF

Row | Structure (SMILES) | IC50 (DNA topoisomerase 1 [5]) [µM] | inhibition [6] | inhibition [7] | inhibition [8] | IC50 [10] [µM] | IC50 (DNA topoisomerase 1 [12]) [µM] | inhibition [18] | GI50 (HL-60 [1]) [µM] | GI50 (PANC-1 [2]) [µM] | GI50 at 48 h [3] [µM] | GI50 (A549 [4]) [µM] | inhibition [9] | GI50 (PC-3 [11]) [µM] | also measured
1 | C/C=C(\C)C(=O)O[C@H]1[C@H](OC(=O)/C(C)=C/C)[C@]2(CO)[C@H](O)[C@H](O)[C@]3(C)C(=CC[C@@H]4[C@@]5(C)CC[C@H](O[C@@H]6O[C@H](C(=O)O)[C@@H](O)[C@H](O[C@@H]7O[C@@H](CO)[C@H](O)[C@H]7O)[C@H]6O[C@@H]6O[C@H](CO)[C@@H](O)[C@H](O)[C@H]6O)C(C)(C)[C@@H]5CC[C@]43C)[C@@H]2CC1(C)C [AESCULIOSIDE IIIF] | 53.7 | – | – | – | > 250 | – | Active | 14.2 | 23.5 | > 25 | > 25 | Active | 11.7 | –
2 | O=c1cc(-c2ccc(O)c(O)c2)oc2cc(O)cc(O)c12 [LUTEOLIN] | – | – | – | – | – | – | – | – | – | – | – | – | – | IC50 [21]: 2.5 µM; IC50 (DNA topoisomerase 1 [22]): 5 µM; IC50 [23]: 14 µM; IC50 (DNA topoisomerase 1 [24]): 0.66 µM

The next lines start with results.

Row | IC50 (DNA topoisomerase 1 [5]) [µM] | inhibition [6] | inhibition [7] | inhibition [8] | IC50 [10] [µM] | IC50 (DNA topoisomerase 1 [12]) [µM] | inhibition [18] | Structure (SMILES) | GI50 (HL-60 [1]) [µM] | GI50 (PANC-1 [2]) [µM] | GI50 at 48 h [3] [µM] | GI50 (A549 [4]) [µM] | inhibition [9] | GI50 (PC-3 [11]) [µM] | also measured
3 | 27.1 | Active | inactive | Active | > 250 | 23.8 | – | C/C=C(/C)C(=O)O[C@H]1[C@H](OC(=O)/C(C)=C\C)[C@]2(CO)[C@H](O)C[C@]3(C)C(=CC[C@@H]4[C@@]5(C)CC[C@H](O[C@@H]6O[C@H](C(=O)O)[C@@H](O)[C@H](O[C@@H]7O[C@@H](CO)[C@H](O)[C@H]7O)[C@H]6O[C@@H]6O[C@H](CO)[C@H](O)[C@H](O)[C@H]6O)C(C)(C)[C@@H]5CC[C@]43C)[C@@H]2CC1(C)C | 1.97 | 11.9 | 7.43 | 6.03 | Active | 3.26 | –
4 | 23.8 | Active | inactive | Active | > 250 | 23.8 | – | C/C=C(/C)C(=O)O[C@H]1[C@H](O)[C@]2(CO)[C@H](O)C[C@]3(C)C(=CC[C@@H]4[C@@]5(C)CC[C@H](O[C@@H]6O[C@H](C(=O)O)[C@@H](O)[C@H](O[C@@H]7O[C@@H](CO)[C@H](O)[C@H]7O)[C@H]6O)[C@](C)(CO)[C@@H]5CC[C@]43C)[C@@H]2CC1(C)C [AESCULIOSIDE IID] | 7.5 | 10.3 | 15.4 | 12.9 | – | 5.51 | Activity [13]: Active; inhibition [14]: inactive; inhibition [15]: Active
5 | – | – | – | – | – | – | Active | C/C=C(\C)C(=O)O[C@H]1[C@H](OC(C)=O)[C@]2(CO)[C@H](O)[C@H](O)[C@]3(C)C(=CC[C@@H]4[C@@]5(C)CC[C@H](O[C@@H]6O[C@H](C(=O)O)[C@@H](O)[C@H](O[C@@H]7O[C@@H](CO)[C@H](O)[C@H]7O)[C@H]6O[C@@H]6O[C@H](CO)[C@@H](O)[C@H](O)[C@H]6O)[C@](C)(CO)[C@@H]5CC[C@]43C)[C@@H]2CC1(C)C [AESCULIOSIDE IIE] | – | – | – | – | – | – | growth inhibition (GI) (HL-60 [16]): inactive; growth inhibition (GI) (PANC-1 [17]): inactive; growth inhibition (GI) (A549 [19]): inactive; growth inhibition (GI) (PC-3 [20]): inactive; growth inhibition (GI) (MRC5): Not Active
6 | > 250 | – | – | – | > 250 | – | Active | C/C=C(/C)C(=O)O[C@H]1[C@H](OC(C)=O)[C@]2(CO)[C@H](O)C[C@]3(C)C(=CC[C@@H]4[C@@]5(C)CC[C@H](O[C@@H]6O[C@H](C(=O)O)[C@@H](O)[C@H](O[C@@H]7O[C@@H](CO)[C@H](O)[C@H]7O)[C@H]6O[C@@H]6O[C@H](CO)[C@H](O)[C@H](O)[C@H]6O)C(C)(C)[C@@H]5CC[C@]43C)[C@@H]2CC1(C)C [AESCULIOSIDE IIK] | 8.75 | 21.5 | 9.89 | 15.1 | – | 8.35 | –
